Reference: patent US20260042764A1, “COMPOSITIONS AND METHODS FOR INHIBITION OF KRAS” (TheRas, Inc., priority 2022, published 2026)
pIC50: −log10 of the molar value.

What was measured:
[1] = biological target: T1, Avi-KRAS G12D (1-169) GppNHp/RAF1 RBD-3xFLAG (52-151) (Homo sapiens, UniProt P01116, G12D); experiment: Raf1-KRAS G12D-GppNHP disruption HTRF assay (Biological Example 1); format: binding
T1 construct: Avi-KRAS G12D (1-169)
How it was run: (§1)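 HTRF PPI disruption; buffer 50 mM Tris pH 7.5, 100 mM NaCl, 5 mM MgCl2, 0.1% BSA, 0.01% Tween, 10% DMSO. Protein mix 1 h RT shaking, reagent mix 1 h RT shaking. Data as % activity vs DMSO (100%).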

[2] = biological target: T2, Avi-KRAS G12V (1-169) GppNHp/RAF1 RBD-3xFLAG (52-151) (Homo sapiens, UniProt P01116, G12V); experiment: Raf1-KRAS G12V-GppNHP disruption HTRF assay (Biological Example 1); format: binding
T2 construct: Avi-KRAS G12V (1-169)
T2 sequence (P01116 1-169 isoform P01116-2 G12V): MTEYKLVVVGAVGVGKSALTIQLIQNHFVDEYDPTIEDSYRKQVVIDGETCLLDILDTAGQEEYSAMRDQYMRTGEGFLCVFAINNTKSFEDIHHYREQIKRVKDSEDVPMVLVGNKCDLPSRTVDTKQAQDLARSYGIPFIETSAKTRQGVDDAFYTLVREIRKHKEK
How it was run: as §1

GP2d cells (KRAS G12D) = experiment: Cell-based pERK HTRF assay in GP2d cell (Biological Example 2); details: GP2d (KRAS G12D) cells
How it was run: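 HTRF read-out of pERK (excitation 320 nm, emission 615 nm) after lysates sat 4–24 h at room temperature with Eu cryptate and d2 antibodies.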

[3] = biological target: T3, Avi-KRAS WT (2-169) GTP/RAF1 RBD-3xFLAG (51-131) (Homo sapiens, UniProt P01116); experiment: Raf1-KRAS WT-GTP disruption HTRF assay (Biological Example 3); format: binding; details: KRAS WT, GTP-loaded
T3 construct: Avi-KRAS WT (2-169)
T3 sequence (P01116 2-169 isoform P01116-2): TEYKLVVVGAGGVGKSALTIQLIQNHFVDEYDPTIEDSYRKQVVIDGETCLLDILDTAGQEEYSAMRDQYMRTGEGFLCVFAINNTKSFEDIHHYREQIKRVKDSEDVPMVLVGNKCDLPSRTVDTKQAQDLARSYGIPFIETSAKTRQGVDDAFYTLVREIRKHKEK
How it was run: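 HTRF PPI read-out (ex 320 nm, em 615 nm) after 1 h RT incubation with shaking; data as % activity vs DMSO (100%), IC50 from curve fit. Complex 50 nM, RBD reagent 75 nM; compound 30-0.005 μM, 3-fold.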

[4] = KRAS G12D, GppNHp-loaded, class symbols
[5] = KRAS G12V, GppNHp-loaded, class symbols

T1 sequence (P01116 1-169 isoform P01116-2 G12D): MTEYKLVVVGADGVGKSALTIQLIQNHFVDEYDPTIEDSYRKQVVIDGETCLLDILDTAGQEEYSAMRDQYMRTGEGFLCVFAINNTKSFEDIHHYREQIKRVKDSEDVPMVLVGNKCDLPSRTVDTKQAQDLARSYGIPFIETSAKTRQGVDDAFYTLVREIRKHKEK

SMILES	pIC50 ([1]; KRAS G12D-GppNHp/RAF1 RBD HTRF)	pIC50 ([2]; KRAS G12V-GppNHp/RAF1 RBD HTRF)	pIC50 (GP2d cells (KRAS G12D); GP2d, pERK HTRF)	pIC50 [3]	pIC50 (GP2d cells (KRAS G12D); GP2d)	pIC50 [1, 4]	pIC50 [2, 5]	pIC50 (GP2d cells (KRAS G12D); GP2d, pERK HTRF, class symbols)	pIC50 (GP2d cells (KRAS G12D); pERK HTRF, class symbols)
CCN(c1nc(OC[C@@]23CCCN2C[C@H](F)C3)nc2c(F)c(-c3ccc(F)c4sc(N)c(C#N)c34)c(Cl)cc12)[C@@H]1CCN(C(=O)C2CC2)[C@@H]1C [Compound 337]	6.00 to 7.00	6.00 to 7.00	> 7.00						
CCN(c1nc(OC[C@@]23CCCN2C[C@H](F)C3)nc2c(F)c(-c3ccc(F)c4sc(N)c(C#N)c34)c(C(F)(F)F)cc12)[C@H]1CCN(C(=O)N2CC(OC)C2)C1 (atropisomer, axis not shown) [Compound 607]				≥ 7.00	> 7.00	> 7.00	> 7.00	> 7.00	
CCN(c1nc(OC[C@@]23CCCN2C[C@H](F)C3)nc2c(F)c(-c3ccc(F)c4sc(N)c(C#N)c34)c(C(F)(F)F)cc12)[C@H]1CCN(C(=O)N2CC(F)C2)C1 (atropisomer, axis not shown) [Compound 606]				6.00 to 7.00	> 7.00	> 7.00	> 7.00	> 7.00	
CCN(c1nc(OC[C@@]23CCCN2C[C@H](F)C3)nc2c(F)c(-c3ccc(F)c4sc(N)c(C#N)c34)c(C(F)(F)F)cc12)[C@H]1CCN(C(=O)O[C@@H]2CCOC2)C1 (atropisomer, axis not shown) [Compound 683]				6.00 to 7.00	> 7.00	> 7.00	> 7.00	> 7.00	
CCN(c1nc(OCC23CCCN2CC(F)C3)nc2c(F)c(-c3ccc(F)c4sc(N)c(C#N)c34)c(C(F)(F)F)cc12)C1CC(C)N(C(=O)N2CC(F)C2)C1 (centres unmarked) [Compound 759]						> 7.00	> 7.00		> 7.00
N#Cc1cnn2c1CN(c1nc(OC[C@@]34CCCN3C[C@H](F)C4)nc3c(F)c(-c4ccc(F)c5sc(N)c(C#N)c45)c(C(F)(F)F)cc13)CC2 [Compound 392]	6.00 to 7.00	6.00 to 7.00	> 7.00						
CCN(c1nc(OC[C@@]23CCCN2C[C@H](F)C3)nc2c(F)c(-c3ccc(F)c4sc(N)c(C#N)c34)c(C(F)(F)F)cc12)[C@H]1CCN(C(=O)c2ncco2)C1 (atropisomer, axis not shown) [Compound 584]						> 7.00	> 7.00	> 7.00	

Now from value to compound:

pIC50 ([1]; KRAS G12D-GppNHp/RAF1 RBD HTRF)	pIC50 ([2]; KRAS G12V-GppNHp/RAF1 RBD HTRF)	pIC50 (GP2d cells (KRAS G12D); GP2d, pERK HTRF)	pIC50 [3]	pIC50 (GP2d cells (KRAS G12D); GP2d)	pIC50 [1, 4]	pIC50 [2, 5]	pIC50 (GP2d cells (KRAS G12D); GP2d, pERK HTRF, class symbols)	pIC50 (GP2d cells (KRAS G12D); pERK HTRF, class symbols)	SMILES
6.00 to 7.00	6.00 to 7.00	> 7.00	6.00 to 7.00	> 7.00					CCN(c1nc(OC[C@@]23CCCN2C[C@H](F)C3)nc2c(F)c(-c3ccc(F)c4sc(N)c(C#N)c34)c(C(F)(F)F)cc12)[C@@H]1CCN(C(=O)C2CC2)C1 [Compound 329]
					> 7.00	> 7.00	> 7.00		CCN(c1nc(OC[C@@]23CCCN2C[C@H](F)C3)nc2c(F)c(-c3ccc(F)c4sc(N)c(C#N)c34)c(C(F)(F)F)cc12)[C@H]1C[C@H](C)N(C(=O)[C@@H]2CC2(F)F)C1 (atropisomer, axis not shown) [Compound 751]
6.00 to 7.00	6.00 to 7.00	> 7.00							C[C@@H]1[C@H](N(C)c2nc(OC[C@@]34CCCN3C[C@H](F)C4)nc3c(F)c(-c4ccc(F)c5sc(N)c(C#N)c45)c(C(F)(F)F)cc23)CC(=O)N1C [Compound 440]
6.00 to 7.00	> 7.00	> 7.00							CN(Cc1cccnc1N)c1nc(OC[C@@]23CCCN2C[C@H](F)C3)nc2c(F)c(-c3ccc(F)c4sc(N)c(C#N)c34)c(C(F)(F)F)cc12 [Compound 390]
> 7.00	> 7.00	> 7.00							CCN(c1nc(OC[C@@]23CCCN2C[C@H](F)C3)nc2c(F)c(-c3ccc(F)c4sc(N)c(C#N)c34)c(C(F)(F)F)cc12)[C@H]1C[C@H](C)N(C(C)=O)C1 [Compound 463]
6.00 to 7.00	6.00 to 7.00	> 7.00							CCC(=O)N1C[C@@H](N(CC)c2nc(OC[C@@]34CCCN3C[C@H](F)C4)nc3c(F)c(-c4ccc(F)c5sc(N)c(C#N)c45)c(C(F)(F)F)cc23)C[C@H]1C [Compound 442]
6.00 to 7.00	6.00 to 7.00	> 7.00							CC(=O)N1CC[C@@H](N(C)c2nc(OC[C@@]34CCCN3C[C@H](F)C4)nc3c(F)c(-c4ccc(F)c5sc(N)c(C#N)c45)c(Cl)cc23)[C@H]1C [Compound 398]
